Measured values taken from paper PMC7434893 (British Journal of Cancer, 2020).
In brackets after ≈: the same amount, converted by molar mass. Entries after “also recorded” stand apart in the source; their conditions may differ.

Key:
PARP [1] = details: 100 mg/kg, preclinical studies; cited from earlier work
NCI-H146 = test: 8-day growth inhibition; type: cell-based; details: SCLC, NCI-H146, 8-day assay
Pfeiffer = test: 8-day growth inhibition; type: cell-based; details: DLBCL (GC), 8-day assay
sIL-2Rα/CD25 = test: Serum biomarker analysis, sIL-2Rα; type: in vivo, human; details: from 48 h onwards, all dose groups
Procedure: Two pre-dose, multiple post-dose and off-treatment time points were included. Serum samples were tested for concentrations of soluble vascular endothelial growth factor receptor (VEGFR)2, VEGFR3 and soluble interleukin-2 receptor α (sIL-2Rα/CD25), using the bead-based Human Soluble Cytokine Receptor Panel assay kit. The two baseline samples (days −3 and −2 prior to dosing) were averaged, and the mean was used to calculate percent change at each of the post-dosing time points.

M14 = test: 8-day growth inhibition; type: cell-based; details: Melanoma, M14, 8-day assay
HepG2 = test: 8-day growth inhibition; type: cell-based; details: HCC, HepG2, 8-day assay
HEC-108 = test: 8-day growth inhibition; type: cell-based; details: Endometrial, HEC-108, 8-day assay
RL = test: 8-day growth inhibition; type: cell-based; details: NHL B cell lymphoma, 8-day assay
A549 = test: 8-day growth inhibition; type: cell-based; details: NSCLC, A549, 8-day assay
HEC-50B = test: 8-day growth inhibition; type: cell-based; details: Endometrial, 8-day assay
advanced solid tumours = test: Tumour response by RECIST 1.1; type: in vivo, human
Procedure: Tumour assessments (computed tomography, magnetic resonance imaging, photographs and bone scans, as suitable for tumour type), based on Response Evaluation Criteria in Solid Tumors version 1.1, were performed at screening and subsequently every 8 weeks until disease progression.

MFE-296 = test: 8-day growth inhibition; type: cell-based; details: Endometrial, MFE-296, 8-day assay
K562 = test: 8-day growth inhibition; type: cell-based; details: Erythroleukemia from CML patient, K562, 8-day assay
PARP [2] = test: Sigmoidal inhibitory indirect-response PK/PD model of PAR formation; type: in vivo, human; details: model estimate
Procedure: The PD measurement utilised in the PK/PD model was the percentage inhibition of the formation of PAR, a marker for PARP activity,[19] which was calculated as % inhibition = […], where baseline was defined as the PAR response at time 0 on day –2.
The model parameters from the PK/PD analysis were then used to simulate the expected PAR responses of additional dosing regimens of E7449. All PK/PD modelling and subsequent response simulations were performed using Phoenix WinNonlin®, version 7.

MC/CAR = test: 8-day growth inhibition; type: cell-based; details: Myeloma, 8-day assay
BT-20 = test: 8-day growth inhibition; type: cell-based; details: Breast, BT-20, 8-day assay
IM-9 = test: 8-day growth inhibition; type: cell-based; details: B lymphoblast, IM-9, 8-day assay
Mino = test: 8-day growth inhibition; type: cell-based; details: MCL, 8-day assay
MDA-MB-468 = test: 8-day growth inhibition; type: cell-based; details: Breast, MDA-MB-468, 8-day assay
NCI-H209 = test: 8-day growth inhibition; type: cell-based; details: SCLC, NCI-H209, 8-day assay
MDA-MB-231 = test: 8-day growth inhibition; type: cell-based; details: Breast, MDA-MB-231, 8-day assay
HEC-6 = test: 8-day growth inhibition; type: cell-based; details: Endometrial, HEC-6, 8-day assay
U937 = test: 8-day growth inhibition; type: cell-based; details: Histiocytic lymphoma - monocytic, U937, 8-day assay
HEC-1B = test: 8-day growth inhibition; type: cell-based; details: Endometrial, 8-day assay
PARP [3] = test: PARP inhibition by PAR levels in PBMCs (ELISA); type: in vivo, human
Procedure: Inhibition of PARP activity was measured by quantifying PAR in PBMCs using an enzyme-linked immunosorbent assay (HT PARP in vivo Pharmacodynamic Assay II kit). PAR levels in PBMCs and the percentage change from baseline were summarised by dose and nominal sampling time point.

NCI-H446 = test: 8-day growth inhibition; type: cell-based; details: SCLC, NCI-H446, 8-day assay
SNG-M = test: 8-day growth inhibition; type: cell-based; details: Endometrial, 8-day assay
HT = test: 8-day growth inhibition; type: cell-based; details: DLBCL (GC), 8-day assay
HEC-251 = test: 8-day growth inhibition; type: cell-based; details: Endometrial, HEC-251, 8-day assay
SR = test: 8-day growth inhibition; type: cell-based; details: B cell lymphoma, 8-day assay
NCI-H69 = test: 8-day growth inhibition; type: cell-based; details: SCLC, NCI-H69, 8-day assay
JVM-2 = test: 8-day growth inhibition; type: cell-based; details: MCL, JVM-2, 8-day assay
PARP1 = details: read-out: IC50, enzymatic activity of PARP1; cited from earlier work
HT-1080 = test: 8-day growth inhibition; type: cell-based; details: Fibrosarcoma, HT-1080, 8-day assay

O=c1[nH]nc2c3c(cccc13)N=C(CN1Cc3ccccc3C1)N2 [E7449]
PARP inhibition in tumours (PARP [1]): sustained PARP inhibition
IC50 (NCI-H146): 930 nM
IC50 (Pfeiffer): 710 nM
sIL-2Rα change above baseline (sIL-2Rα/CD25): up to 150%
IC50 (M14): 6700 nM
IC50 (HepG2): 3800 nM
IC50 (HEC-108): 5970 nM
IC50 (RL): 2500 nM
IC50 (A549): 2200 nM
IC50 (HEC-50B): 3450 nM
ORR in patients with germline-mutated BRCA (advanced solid tumours; 1/6): 16.7%
Objective response rate (ORR) (advanced solid tumours; 2/41, all cohorts): 4.9%
Patients with BRCA mutations with partial response or stable disease (advanced solid tumours; 3/6): 50%
Best overall response of stable disease, patients (advanced solid tumours; 13 of 41 patients): 31.7%
Median duration of stable disease (advanced solid tumours; 13 patients): 162 days
Best Overall Response to E7449 (advanced solid tumours; BRCA-mutated patient, platinum naïve, breast): Progressive Disease
Best Overall Response to E7449 (advanced solid tumours; BRCA-mutated patient, platinum naïve, pancreas): Stable Disease
Best Overall Response to E7449 (advanced solid tumours; BRCA-mutated patient, platinum resistant, breast): Progressive Disease
Best Overall Response to E7449 (advanced solid tumours; BRCA-mutated patients, platinum sensitive, ovary (one line per patient)): Stable Disease; also recorded: Partial Response; also recorded: Progressive Disease
Patients with durable (>23 weeks) stable disease (advanced solid tumours; of 13 patients with SD): 8
Patients with a decrease in target lesion size (advanced solid tumours; of the 35 patients evaluated for best overall response): 13
Partial responses, patients (advanced solid tumours; ovarian cancer, 1 each in 600-mg and 800-mg cohorts): 2
IC50 (MFE-296): 670 nM
IC50 (K562): 4300 nM
kout (PARP [2]): 0.52 h⁻¹
EC50 (PARP [2]; plasma concentration, inhibition of PAR formation in PBMCs): 0.11 µg/mL (≈ 0.347 µM)
kin (PARP [2]; rate of formation of PAR): 35.5 h⁻¹
IC50 (MC/CAR): 2300 nM
IC50 (BT-20): 7900 nM
IC50 (IM-9): 2100 nM
IC50 (Mino): 3400 nM
IC50 (MDA-MB-468): 2500 nM
IC50 (NCI-H209): 620 nM
IC50 (MDA-MB-231): 25000 nM
IC50 (HEC-6): 1880 nM
IC50 (U937): 2700 nM
IC50 (HEC-1B): 7270 nM
Time of maximal decrease in PAR levels after administration (PARP [3]; 600 mg, fasted cohort): 2 to 4 h
Time of maximal decrease in PAR levels post treatment (PARP [3]; 600 mg, fed cohort): 4 to 8 h
Decrease in PAR levels (PARP [3]; 24-h post-dose time points (cycle 1, days 1, 7, 8 and 16)): ≥ 70%
Population mean PARP inhibition (PARP [3]; MTD 600 mg once daily, steady state, PAR in PBMCs): approximately 90%
Inhibition in PAR levels from baseline (PARP [3]; food-effect cohorts, 600 mg): up to 90%
IC50 (NCI-H446): 610 nM
IC50 (SNG-M): 1360 nM
IC50 (HT): 660 nM
IC50 (HEC-251): 1260 nM
IC50 (SR): 260 nM
IC50 (NCI-H69): 1330 nM
IC50 (JVM-2): 14000 nM
IC50 (PARP1): 1 nM
IC50 (HT-1080): 830 nM
